The target in one test is Gamma-secretase. In words: Modulation of gamma-secretase activity (unknown origin) assessed as amyloid-beta(1-42) production by ELISA. Type of test: protein-complex assay, Homo sapiens. A general note: In an ELISA, binding on a coated surface is turned into a signal by an enzyme label.
Another test relates to Rattus norvegicus. Description: Reduction of amyloid-beta peptides level in rat brain at 30 mg/kg, po. Type of test: functional, organism-based.

Calls of active or inactive are those of the source. No cut-off for these calls is given here.

For `COc1cc(Nc2nc3c(c(N(C)C)n2)C=CCN=C3c2ccccc2)ccc1-n1cnc(Cl)c1`, the IC50 (in general, the concentration at which inhibition is half-maximal) at Gamma-secretase stood at 21 nM. Further, the inhibition result in the test on Rattus norvegicus is “Active”.
Turning to `COc1cc(Nc2nc3c(c(N(C)C)n2)C=CCOC3c2ccccc2)ccc1-n1cnc(Cl)c1` (stereo unspecified), the concentration for half-maximal inhibition (IC50) at Gamma-secretase worked out at 56 nM.
`CNc1nc(Nc2ccc(-n3cnc(Cl)c3)c(OC)c2)nc2c1C=CCN=C2c1ccccc1`: at Gamma-secretase, the IC50 was determined as 5 nM. Further, in the test on Rattus norvegicus, the inhibition result was “Active”.
As for `COc1cc(Nc2nc3c(c(N(C)C)n2)C=CCNC3c2ccccc2)ccc1-n1cnc(Cl)c1` (stereo unspecified), the IC50 at Gamma-secretase worked out at 36 nM.
